From PMC12718081 (ACS Infectious Diseases, 2025)
“And” between values parts separate entries of the source, which are not always exact repeats. Identical values can stand only once. “Also recorded” adds a separate entry of the source. Like-named read-outs stand apart in the source and are kept apart here.

Assays:
[1] = target: Eg.TRPMPZQ (Echinococcus granulosus, UniProt W6UVV9); experiment: cell-based; details: HEK293, Ca2+ reporter, mean ± standard deviation; for Emax: read-out: Bmax, Eg.TRPMPZQ activation
Chain of Eg.TRPMPZQ (W6UVV9 entry or part of it): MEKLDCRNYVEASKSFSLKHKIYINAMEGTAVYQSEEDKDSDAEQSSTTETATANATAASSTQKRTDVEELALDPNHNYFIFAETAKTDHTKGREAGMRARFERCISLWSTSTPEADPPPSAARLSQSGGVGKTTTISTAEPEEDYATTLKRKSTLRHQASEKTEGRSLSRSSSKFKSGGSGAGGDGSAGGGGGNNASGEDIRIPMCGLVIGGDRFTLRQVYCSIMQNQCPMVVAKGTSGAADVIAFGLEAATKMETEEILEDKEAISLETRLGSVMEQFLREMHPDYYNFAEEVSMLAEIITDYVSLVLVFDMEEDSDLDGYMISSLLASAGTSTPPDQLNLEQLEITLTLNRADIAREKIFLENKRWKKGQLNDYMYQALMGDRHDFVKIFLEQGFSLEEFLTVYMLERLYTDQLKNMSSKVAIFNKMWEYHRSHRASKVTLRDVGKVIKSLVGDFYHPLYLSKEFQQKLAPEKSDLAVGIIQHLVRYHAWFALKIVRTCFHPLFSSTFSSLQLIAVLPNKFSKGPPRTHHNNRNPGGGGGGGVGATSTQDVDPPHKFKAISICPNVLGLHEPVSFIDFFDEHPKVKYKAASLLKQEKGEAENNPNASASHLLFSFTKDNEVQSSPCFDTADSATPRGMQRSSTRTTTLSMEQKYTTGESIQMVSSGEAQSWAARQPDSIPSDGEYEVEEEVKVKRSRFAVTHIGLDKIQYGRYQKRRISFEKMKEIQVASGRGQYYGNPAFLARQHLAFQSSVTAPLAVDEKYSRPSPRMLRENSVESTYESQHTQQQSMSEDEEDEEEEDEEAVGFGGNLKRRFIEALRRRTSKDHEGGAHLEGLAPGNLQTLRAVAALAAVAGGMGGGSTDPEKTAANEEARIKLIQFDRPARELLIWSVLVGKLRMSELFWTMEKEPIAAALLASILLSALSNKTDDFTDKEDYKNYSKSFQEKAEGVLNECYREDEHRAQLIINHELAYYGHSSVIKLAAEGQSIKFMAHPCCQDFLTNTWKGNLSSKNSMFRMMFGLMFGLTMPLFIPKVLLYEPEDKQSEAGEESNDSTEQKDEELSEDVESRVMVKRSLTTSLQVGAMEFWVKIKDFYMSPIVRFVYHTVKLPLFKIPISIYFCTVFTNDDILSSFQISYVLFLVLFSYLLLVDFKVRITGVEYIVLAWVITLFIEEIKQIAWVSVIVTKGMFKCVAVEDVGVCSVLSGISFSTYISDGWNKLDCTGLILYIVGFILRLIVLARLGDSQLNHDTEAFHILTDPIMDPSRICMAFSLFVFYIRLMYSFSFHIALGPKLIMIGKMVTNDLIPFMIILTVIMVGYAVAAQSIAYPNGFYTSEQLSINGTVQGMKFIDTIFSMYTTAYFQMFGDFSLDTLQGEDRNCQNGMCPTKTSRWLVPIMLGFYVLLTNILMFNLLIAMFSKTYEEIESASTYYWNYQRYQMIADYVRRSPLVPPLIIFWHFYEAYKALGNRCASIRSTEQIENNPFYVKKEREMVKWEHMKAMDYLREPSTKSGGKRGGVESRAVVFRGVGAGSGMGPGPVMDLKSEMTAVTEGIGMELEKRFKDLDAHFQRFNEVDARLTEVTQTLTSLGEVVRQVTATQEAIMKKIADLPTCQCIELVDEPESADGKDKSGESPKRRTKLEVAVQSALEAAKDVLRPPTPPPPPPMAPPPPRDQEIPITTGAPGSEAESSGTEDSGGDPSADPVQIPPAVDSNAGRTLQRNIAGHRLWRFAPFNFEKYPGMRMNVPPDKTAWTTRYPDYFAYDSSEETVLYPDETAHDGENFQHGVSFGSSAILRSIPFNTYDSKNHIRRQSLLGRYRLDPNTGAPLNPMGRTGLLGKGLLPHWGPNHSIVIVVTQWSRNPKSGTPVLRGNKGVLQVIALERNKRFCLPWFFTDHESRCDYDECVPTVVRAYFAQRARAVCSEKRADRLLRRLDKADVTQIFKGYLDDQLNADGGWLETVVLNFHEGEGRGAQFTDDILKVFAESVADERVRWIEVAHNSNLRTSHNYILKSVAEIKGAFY

[2] = system: juvenile schistosomes; experiment: Microscopy analysis of juvenile morphology and motility (viability score 0-3); details: 10 μM, 72 h, Table S1
[3] = system: Fh.TRPMPZQ; experiment: Ca2+ reporter (FLIPR) activation assay, Fh.TRPMPZQ in HEK293 cells; format: cell-based, Fasciola hepatica; details: at the tested concentrations, data not shown
Description: (§1) Finally, selectivity for Sm.TRPMPZQ was assessed by profiling responses on the F. hepatica (Fh.TRPMPZQ) and E. granulosus (Eg.TRPMPZQ) TRPMPZQ orthologs, as well as the schistosome TRPM paralog Sm.TRPMMCLZ, a distinct TRPM channel activated by meclonazepam. Meclonazepam is an anthelmintic benzodiazepine known for its toxicity to juvenile schistosome worms.
(§2) The Ca^2+ reporter assay was performed using a Fluorescence Imaging Plate Reader (FLIPR) system, as described in the Supporting Information. […]
(§3) The half-maximal inhibitory
(§4) Windows (GraphPad Software, Boston, MA, USA; www.graphpad.com). […]
(§5) with DMSO as a negative control. […]
(§6) reader. […] The fluorescence
(§7) Untransfected HEK293 cells were used as a control.
(§8) 10% fetal bovine serum (FBS). […]
(§9) atmosphere containing 5% CO₂. Following incubation, the growth medium was removed and […]
(§10) buffer containing 2.5 mM probenecid in HBSS (with Ca²⁺ and Mg²⁺), 20 mM HEPES, 0.3% BSA (Sigma, A7030), and 0.03% L-ascorbic acid (Sigma). Cells were incubated for 40 minutes at 37 °C and subsequently for 20 minutes at room temperature. A total of seven PZQ derivatives were tested, using racemic PZQ included as a positive control on each assay plate. Drug dilutions were prepared in assay buffer without dye and probenecid and dispensed into separate flat-bottom 384-well plates. Calcium flux measurements were performed at room temperature using a […]
(§11) instrument (Molecular Devices). Baseline fluorescence was recorded for 20 seconds, followed by the addition of 5 µL of each drug solution, after which fluorescence was measured continuously for 250 seconds. […]

[4] = target: Sm.TRPMPZQ (wild-type) (Schistosoma mansoni, UniProt A0A5K4F0X5); experiment: Ca2+ reporter (FLIPR) activation assay, wild-type Sm.TRPMPZQ in HEK293 cells; format: cell-based
Chain of Sm.TRPMPZQ (wild-type) (A0A5K4F0X5 entry or part of it): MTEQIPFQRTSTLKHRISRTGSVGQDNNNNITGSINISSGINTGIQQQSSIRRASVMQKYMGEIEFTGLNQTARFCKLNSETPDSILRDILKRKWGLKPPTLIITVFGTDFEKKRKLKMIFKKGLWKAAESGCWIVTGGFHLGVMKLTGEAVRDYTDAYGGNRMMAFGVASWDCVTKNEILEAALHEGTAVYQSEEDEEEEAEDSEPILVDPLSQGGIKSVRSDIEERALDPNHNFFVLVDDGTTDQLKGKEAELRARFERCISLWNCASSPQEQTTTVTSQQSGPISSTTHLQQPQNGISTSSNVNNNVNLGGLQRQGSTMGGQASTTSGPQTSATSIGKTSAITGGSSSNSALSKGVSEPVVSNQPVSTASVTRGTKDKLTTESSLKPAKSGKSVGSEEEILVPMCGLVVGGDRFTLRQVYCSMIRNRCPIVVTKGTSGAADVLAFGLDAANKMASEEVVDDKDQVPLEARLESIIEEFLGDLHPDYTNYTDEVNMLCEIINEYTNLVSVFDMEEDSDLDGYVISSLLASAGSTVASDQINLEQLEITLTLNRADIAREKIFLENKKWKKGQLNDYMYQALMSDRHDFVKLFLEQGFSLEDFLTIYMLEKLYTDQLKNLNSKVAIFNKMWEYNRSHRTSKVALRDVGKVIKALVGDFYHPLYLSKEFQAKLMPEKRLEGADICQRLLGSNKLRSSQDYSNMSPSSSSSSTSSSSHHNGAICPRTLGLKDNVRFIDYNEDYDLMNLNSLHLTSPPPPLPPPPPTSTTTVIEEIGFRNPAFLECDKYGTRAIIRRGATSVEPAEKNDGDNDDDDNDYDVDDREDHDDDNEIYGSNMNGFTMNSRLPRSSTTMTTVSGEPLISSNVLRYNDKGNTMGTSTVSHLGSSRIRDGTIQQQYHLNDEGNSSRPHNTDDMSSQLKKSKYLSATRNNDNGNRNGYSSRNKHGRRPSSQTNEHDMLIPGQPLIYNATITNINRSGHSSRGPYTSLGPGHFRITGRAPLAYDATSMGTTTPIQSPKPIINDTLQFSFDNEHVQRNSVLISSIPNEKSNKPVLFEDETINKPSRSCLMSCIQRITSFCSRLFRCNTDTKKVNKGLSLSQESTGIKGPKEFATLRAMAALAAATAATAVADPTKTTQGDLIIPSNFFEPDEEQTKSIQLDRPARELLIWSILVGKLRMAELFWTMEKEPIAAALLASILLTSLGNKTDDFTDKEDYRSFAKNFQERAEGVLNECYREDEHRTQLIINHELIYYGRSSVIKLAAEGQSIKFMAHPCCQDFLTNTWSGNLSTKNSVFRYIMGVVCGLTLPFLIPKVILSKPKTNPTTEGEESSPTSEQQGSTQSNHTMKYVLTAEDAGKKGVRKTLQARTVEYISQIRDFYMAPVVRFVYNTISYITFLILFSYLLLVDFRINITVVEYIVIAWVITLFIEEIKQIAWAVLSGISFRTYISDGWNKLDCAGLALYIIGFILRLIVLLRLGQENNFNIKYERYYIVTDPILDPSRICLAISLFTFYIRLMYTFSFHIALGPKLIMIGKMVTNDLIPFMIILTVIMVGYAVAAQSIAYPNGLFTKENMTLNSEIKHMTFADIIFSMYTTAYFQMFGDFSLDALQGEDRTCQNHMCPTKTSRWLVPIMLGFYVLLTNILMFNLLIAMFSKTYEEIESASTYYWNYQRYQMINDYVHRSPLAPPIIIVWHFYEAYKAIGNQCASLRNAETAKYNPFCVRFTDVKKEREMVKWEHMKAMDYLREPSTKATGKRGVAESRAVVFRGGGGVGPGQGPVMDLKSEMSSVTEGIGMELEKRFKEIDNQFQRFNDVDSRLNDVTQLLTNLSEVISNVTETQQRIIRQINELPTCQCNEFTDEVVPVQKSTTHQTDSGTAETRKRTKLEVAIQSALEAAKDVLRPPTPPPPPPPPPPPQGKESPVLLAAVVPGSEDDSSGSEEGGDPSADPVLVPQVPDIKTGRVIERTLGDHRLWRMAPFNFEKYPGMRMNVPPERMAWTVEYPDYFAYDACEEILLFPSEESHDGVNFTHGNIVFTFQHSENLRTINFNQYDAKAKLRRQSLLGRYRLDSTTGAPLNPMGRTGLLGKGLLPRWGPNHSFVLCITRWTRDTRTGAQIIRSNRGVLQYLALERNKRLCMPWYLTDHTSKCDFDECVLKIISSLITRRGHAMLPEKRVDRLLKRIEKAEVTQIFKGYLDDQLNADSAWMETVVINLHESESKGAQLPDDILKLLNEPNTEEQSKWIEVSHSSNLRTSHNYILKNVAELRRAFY
Description: as §2, §3, §4, §5, §6, §7, §8, §9
buffer containing 2.5 mM probenecid in HBSS (with Ca²⁺ and Mg²⁺), 20 mM HEPES, 0.3% BSA (Sigma, A7030), and 0.03% L-ascorbic acid (Sigma). Cells were incubated for 40 minutes at 37 °C and subsequently for 20 minutes at room temperature. […]
prepared in assay buffer without dye and probenecid and dispensed into separate flat-bottom 384-well plates. Calcium flux measurements were performed at room temperature using a […]
as §11

[5] = system: adult schistosomes (male and female worms); experiment: Adult worm ex vivo high-content image-based motility assay; format: cell-based, Schistosoma mansoni
Description: Adult schistosomes’ motility was determined using a high-content assay previously developed by our group, , with images analyzed in CellProfiler software. More details are provided in the Supporting Information.
(§12) Adult worm ex-vivo high-content assay
“Area” and “False Negative Rate” from the MeasureObjectSizeShape and MeasureObjectOverlap modules, respectively. These measurements were then modeled by a multilevel generalized linear statistical model. The effects of the experimental treatments on […]
as §3, §4
with DMSO as a negative control.

[6] = system: Sm.TRPMMCLZ; experiment: Ca2+ reporter (FLIPR) activation assay, Sm.TRPMMCLZ in HEK293 cells; format: cell-based, Schistosoma mansoni; details: at the tested concentrations, data not shown
Description: as §1, §2, §3, §4, §5, §6, §7, §8, §9, §10, §11

[7] = in vitro; details: human, HepG2 cytotoxicity (CC50)
Description: (§13) Next, we conducted a more detailed investigation by performing dose–response assays with each compound on HepG2 hepatic epithelial cells, as the liver is one of the major organs affected in intestinal schistosomiasis.
(§14) More details are provided in the Supporting Information.
as §12
(§15) Male and female worms were placed in 96-well microplates (one worm per well) and incubated […]
(§16) to 72 hours. Brightfield timelapse images (100 images, 0.3-second intervals) were captured from each well before, immediately after, and every 24 hours following compound addition using an ImageXpress Micro Confocal High Content System equipped with a 2x objective. Image analysis was performed through a custom pipeline in CellProfiler software (v. 4.2.1, Windows OS).57 During analysis, the area of each worm and its displacement between consecutive image captures (i.e., images taken at successive time points) were measured using the parameters “Area” and “False Negative Rate” from the MeasureObjectSizeShape and MeasureObjectOverlap modules, respectively. These measurements were then modeled by a multilevel generalized linear statistical model. The effects of the experimental treatments on parasite motility were estimated with the integrated nested Laplace approximation (INLA) method, available in the INLA package of R (https://www.r-inla.org). The half-maximal inhibitory concentration (EC50) of each compound was calculated based on the worms' estimated motility using the […] 4-parameter logistic equation in GraphPad Prism version 9.0.0 for Windows (GraphPad Software, Boston, MA, USA; www.graphpad.com). […]
(§17) either at a fixed concentration (10 µM) or across a range of concentrations (0.0001–300 µM), or with DMSO as a negative control. Two hours before the end of the experiment (t0), a resazurin solution (final concentration: 0.01 mg/mL) was added to each well and the first fluorescence […]
(§18) reader. At the end of the incubation (t1), a second reading was performed. The fluorescence attributed solely to resorufin was measured by subtracting the fluorescence readings at t0 from those at t1. The results were expressed as percentual cell viability considering negative control

[8] = system: HepG2 hepatic epithelial cells; experiment: in vitro; details: for Selectivity Index (CC50/EC50), Female: HepG2 CC50 / female worm motility EC50, 48 h; for Selectivity Index (CC50/EC50), Male: HepG2 CC50 / male worm motility EC50, 48 h
Description: as §13, §14, §12, §15, §16, §17, §18

[9] = Schistosoma mansoni, 0 h, female adult worms, 0 h (immediately after addition), single experiment or geometric mean, read-out: Female worm motility inhibition (EC50)
[10] = Schistosoma mansoni, 0 h, male adult worms, 0 h (immediately after addition), single experiment or geometric mean, read-out: Male worm motility inhibition (EC50)
[11] = Schistosoma mansoni, 0 h, male, 0 h, individual experiments, read-out: Male worm motility inhibition (EC50), values of independent experiments
[12] = Schistosoma mansoni, 24 h, female adult worms, 24 h, single experiment or geometric mean, read-out: Female worm motility inhibition (EC50)
[13] = Schistosoma mansoni, 24 h, male adult worms, 24 h, single experiment or geometric mean, read-out: Male worm motility inhibition (EC50)
[14] = Schistosoma mansoni, 24 h, male, 24 h, individual experiments, read-out: Male worm motility inhibition (EC50), values of independent experiments
[15] = Schistosoma mansoni, 48 h, female adult worms, 48 h, single experiment or geometric mean, read-out: Female worm motility inhibition (EC50)
[16] = Schistosoma mansoni, 48 h, male adult worms, 48 h, single experiment or geometric mean, read-out: Male worm motility inhibition (EC50)
[17] = Schistosoma mansoni, 72 h, female adult worms, 72 h, single experiment or geometric mean, read-out: Female worm motility inhibition (EC50)
[18] = Schistosoma mansoni, 72 h, male adult worms, 72 h, single experiment or geometric mean, read-out: Male worm motility inhibition (EC50)
[19] = Schistosoma mansoni, 72 h, male, 72 h, individual experiments, read-out: Male worm motility inhibition (EC50), values of independent experiments
[20] = Schistosoma mansoni, male, 0-72 h, read-out: EC50 against male adult worms (motility), span over incubation times
[21] = female adult worms, 24 h, single experiment or geometric mean, read-out: Female worm motility inhibition (EC50)
[22] = female adult worms, 72 h, single experiment or geometric mean, read-out: Female worm motility inhibition (EC50)
[23] = male, 24 h, individual experiments, read-out: Male worm motility inhibition (EC50), values of independent experiments
[24] = male, 48 h, individual experiments, read-out: Male worm motility inhibition (EC50), values of independent experiments
[25] = male, 72 h, individual experiments, read-out: Male worm motility inhibition (EC50), values of independent experiments
[26] = values of independent experiments

| SMILES | Emax [1] [%] | number of juvenile worms with viability score 0 [2] | number of juvenile worms with viability score 1 [2] | number of juvenile worms with viability score 2 [2] | number of juvenile worms with viability score 3 [2] | EC50 [5, 9] [µM] | EC50 [5, 10] [µM] | EC50 [5, 11] [µM] | EC50 [5, 12] [µM] | EC50 [5, 13] [µM] | EC50 [5, 14] [µM] | EC50 [5, 15] [µM] | EC50 [5, 16] [µM] | EC50 [5, 17] [µM] | EC50 [5, 18] [µM] | EC50 [5, 19] [µM] | EC50 [5, 20] [µM] | EC50 [5, 21] [µM] | EC50 [5, 22] [µM] | EC50 [5, 23] | also measured |
| --- | --- | --- | --- | --- | --- | --- | --- | --- | --- | --- | --- | --- | --- | --- | --- | --- | --- | --- | --- | --- | --- |
| [N-]=[N+]=Nc1ccc2c(c1)C1CN(C(=O)C3CCCCC3)CC(=O)N1CC2 (stereo not drawn) [Compound 4] | 145 ± 14.6 | 48 | 4 | 25 | 12 | 6.7 | 2.3 | 2.83 | 3.15 | 1.8 | 2.56 | 9.4 | 1.6 | 3.48 | 1.3 | 1.22 | 1.3 to 2.3 | 3.1 | 3.5 | 1.42 µM and 1.74 µM | activation of Fh.TRPMPZQ [3]: did not activate; EC50 ([4]; 0.001 to 100 μM): 0.89 ± 0.03 µM; Emax ([4]; read-out: Bmax, wild-type Sm.TRPMPZQ activation): 80.5 ± 2.19%; EC50 ([5]; female, 0 h, individual experiments, read-out: Female worm motility inhibition (EC50), values of independent experiments): 14.8 µM and 3.02 µM; EC50 ([5]; female, 48 h, individual experiments, read-out: Female worm motility inhibition (EC50), values of independent experiments): 26.8 µM and 3.34 µM; EC50 ([5]; male, 0 h, individual experiments, read-out: Male worm motility inhibition (EC50), values of independent experiments): 1.93 µM; EC50 [5, 24]: 2.37 µM and 1.1 µM and 1.71 µM; EC50 [5, 25]: 1 µM and 1.72 µM; activation of Sm.TRPMMCLZ [6]: did not activate; CC50 at 48 h [7]: 156 µM; CC50 at 48 h [7, 26]: 155 µM; Selectivity Index (CC50/EC50), Female [8]: 16.6 and 17; Selectivity Index (CC50/EC50), Male [8]: 97.7 and 98 |
| O=C(C1CCCCC1)N1CC(=O)N2CCc3ccc(-n4cc(C5=CCCCC5)nn4)cc3C2C1 (stereo not drawn) [Compound 5b] | 10.4 ± 0.31 | 21 | 1 | 3 | 7 | 101 | 32.7 | 31.6 | 96.2 | 47 | 50.4 | 95 | 49.2 | 89.1 | 40.5 | 44.7 | > 30 | 96 | 89 | 43.8 µM | EC50 for Eg.TRPMPZQ activation [1]: No signal; Bmax, wild-type Sm.TRPMPZQ activation [4]: No activity; EC50 for wild-type Sm.TRPMPZQ activation ([4]; 0.001 to 100 μM): failed to activate; also recorded: No activity; EC50 ([5]; Schistosoma mansoni, 48 h, male, 48 h, individual experiments, read-out: Male worm motility inhibition (EC50), values of independent experiments): 54.2 µM; EC50 ([5]; Schistosoma mansoni, female, 0-72 h, read-out: EC50 against female adult worms (motility), span over incubation times): > 30 µM; EC50 ([5]; female adult worms, 0 h (immediately after addition), single experiment or geometric mean, read-out: Female worm motility inhibition (EC50)): 101 µM; EC50 ([5]; male adult worms, 0 h (immediately after addition), single experiment or geometric mean, read-out: Male worm motility inhibition (EC50)): 33 µM; EC50 ([5]; male adult worms, 48 h, single experiment or geometric mean, read-out: Male worm motility inhibition (EC50)): 49 µM; EC50 ([5]; male adult worms, 72 h, single experiment or geometric mean, read-out: Male worm motility inhibition (EC50)): 40 µM; EC50 [5, 24]: 44.6 µM; EC50 [5, 25]: 36.6 µM; CC50 at 48 h [7]: 28.5 µM; CC50 at 48 h [7, 26]: 28.7 µM; Selectivity Index (CC50/EC50), Female [8]: 0.3; Selectivity Index (CC50/EC50), Male [8]: 0.6; Selectivity Index (SI), sex not specified ([8]; HepG2 vs adult worms, 48 h): < 1 |
